From patent publication US9702005B2, “Hepatitis B viral variants with reduced susceptibility to nucleoside analogs and uses thereof” (priority 2002, dated 2017)

Key:
HBV rt N236T/N238D = assay: In vitro drug susceptibility, recombinant HBV/baculovirus in HepG2 cells, rt N236T/N238D; type: cell-based, hepatitis B virus
Description: (§1) The sensitivity/resistance profile of HBV mutants to ADV was examined in vitro using recombinant HBV/baculovirus. The procedure for analyzing the resistance profile is outlined in the following Examples 12-20.
(§2) Sf21 insect cells were maintained in supplemented Grace's insect medium further supplemented with 10% v/v heat-inactivated fetal bovine serum (Gibco BRL, Gaithersburg, Md.) in humidified incubator at 28° C. with CO2. HepG2 cells were maintained in minimal essential medium supplemented with 10% v/v heat-inactivated fetal bovine serum (MEM-FBS). HepG2 cells were grown in humidified 37° C. incubators at 5% v/v CO2.
(§3) The recombinant HBV/baculovirus system used for antiviral testing has been previously described (Delaney et al., Antimicrob Agents Chemother 45(6): 17054013, 2001). In brief, the recombinant transfer vector was created by excising a fragment containing the 1.3X HBV genome construct and cloning it into the multiple cloning region of a baculovirus vector pBlueBac4.5 (Invitrogen, Carlsbad, Calif.). […] The nucleotide sequence of the plasmid and the point mutations generated by site directed mutagenesis were confirmed by sequencing using the ABI Prism Big Dye Terminator Cycle Sequencing Ready Reaction Kit according to the manufacturer's specifications (Perkin Elmer, Cetus Norwalk, Conn.). […]

HBV rt A181T/N236T/N238D = assay: In vitro drug susceptibility, recombinant HBV/baculovirus in HepG2 cells, rt A181T/N236T/N238D; type: cell-based, hepatitis B virus
Description: as §1, §2
(§4) The recombinant HBV/baculovirus system used for antiviral testing has been previously described (Delaney et al., Antimicrob Agents Chemother 45(6): 17054013, 2001). In brief, the recombinant transfer vector was created by excising a fragment containing the 1.3X HBV genome construct and cloning it into the multiple cloning region of a baculovirus vector pBlueBac4.5 (Invitrogen, Carlsbad, Calif.). Point mutations were created by site directed mutagenesis using the commercial kits according to the manufacturer's specifications (QuikChange, Stratagene). HBV/baculovirus recombinant clones encoding the reverse transcriptase mutations rtA181T/N236T/N238D and […] in combination with the precore mutation at G1896A (pcW28 stop) or wild-type with respect to codon pcW28, were prepared by site-directed mutagenesis. The nucleotide sequence of the plasmid and the point mutations generated by site directed mutagenesis were confirmed by sequencing using the ABI Prism Big Dye Terminator Cycle Sequencing Ready Reaction Kit according to the manufacturer's specifications (Perkin Elmer, Cetus Norwalk, Conn.).
Purified recombinant transfer vector and linear AcMNPV baculovirus DNA were co-transfected into Sf21 cells using the BacNBlue transfection kit from Invitrogen (Carlsbad, Calif.); recombinant viruses were isolated by plaque assay according to the manufacturer's instructions. A series of recombinant viruses were amplified from isolated plaques by infecting 100-mm dishes of Sf21 cells. Viral DNA was extracted from amplified viruses using standard procedures. Purified viral DNA was digested with restriction enzymes and then fractionated by electrophoresis in a 1% […] agarose gel. Southern blotting was performed to determine which virus isolates contained the intact 1.3 HBV construct. A Boehringer Mannheim Random Prime DNA Labeling kit (Indianapolis, Ind.) was used to generate [P^32]-radiolabeled probes. A full-length double-stranded HBV genome was used as a template for all radiolabeled probes. […]

HBV [1] = assay: Hepatitis B viral DNA levels in patients on treatment (capture hybridization assay); type: in vivo, human; conditions: for HBV DNA copies/ml: open label ADV
Description: (§5) Patient A, a person was initially referred for evaluation of thrombocytopenia and hepatosplenomegaly. At this time the patient had abnormal LFT's (ALT 67 U/L, normal <55) and the HBV DNA was 61 pg/ml (231 days prior to the start of treatment). The patient was HBsAg and HBeAg positive. The ALT's fluctuated between 50-70 IU/L from (−231 to −35 days pretreatment). ADV was commenced on Day 0 in a clinical trial on 30 mg/day. HBV DNA levels were reduced with ADV treatment. The ADV treatment was reduced to 10 mg/day (144 days post-treatment). There was a problem with the randomization treatment protocol. The patient was on antiviral treatment for 1 month only during the second year of the treatment period. The study was completed on Day 679 post ADV treatment. The patient was not on ADV treatment until the open label ADV was recommenced on Day 875 from the start of the initial ADV treatment. This second period of ADV treatment was given for 108 days (day 983 post initial ADV treatment). […] At Day 983, ADV treatment was stopped and the patient was treated with LMV.
(§6) Patient B is a liver transplant patient. The patient has been on both sequential and combination antiviral therapy including HBIG, FCV+HBIG, LMV+HBIG, LMV, LMV+GCV, LMV+FCV+GCV, LMV+GCV and finally LMV+ADV. The patient has been on long term ADV+LMV treatment for over 795 days. Patient C, is a person. Prior to ADV treatment the patient had abnormal LFT's (ALT 240 IU/L, normal <55) and the HBV DNA was 2×10^7 copies/ml. ADV was commenced on Day 0 in a clinical trial on 10 mg/day for two years. The average ALT during the two year clinical trial period ws 114 IU/L. However, the ALT was rising and at 630 days after the start of ADV treatment the ALT remained high 407 IU/L. Open label ADV was commenced on Day 668 from the start of the initial ADV treatment. This second period of ADV treatment was given for […]. […] The peak ALT during open label ADV treatment was 517 IU/L (Day 738). The next day (Day 739), ADV treatment was stopped and the patient was treated with LMV.
Hepatitis B surface antigen (HBsAg), hepatitis B e antigen (HBeAg), anti-HBe and hepatitis B core antigen (HBcAg) specific IgG and IgM were measured using commercially available immunoassays (Abbott Laboratories, North Chicago, Ill., USA). Hepatitis B viral DNA levels were measured using a capture hybridization assay according to the manufacturer's directions (Digene Hybrid Capture II, Digene Diagnostics Inc., Beltsville, Md.). The manufacturers stated cut-off for detecting HBV viremia in clinical specimens was 0.7×10^6 copies/ml or 2.5 pg/ml, [Hendricks et al., Am J Clin Pathol 104: 537-46, 1995]. HBV DNA levels can also be quantitated using other commercial kits such as Cobas amplification HBV monitor kit (Roche).

[2] = ALT in patients on treatment; type: in vivo, human
Description: as §5, §6

HBV [3] = conditions: phase II studies, 30 mg daily dose, over 12 weeks; cited from earlier work
[4] = tested on: Wild-type (pPC) HBV reference laboratory strain (genotype D subtype ayw); assay: In vitro drug susceptibility, recombinant HBV/baculovirus in HepG2 cells, wild-type; type: cell-based, hepatitis B virus
Description: as §1, §2, §4
Purified recombinant transfer vector and linear AcMNPV baculovirus DNA were co-transfected into Sf21 cells using the BacNBlue transfection kit from Invitrogen (Carlsbad, Calif.); recombinant viruses were isolated by plaque assay according to the manufacturer's instructions. […]

HBV rt L180M/M204V = assay: In vitro drug susceptibility, recombinant HBV/baculovirus in HepG2 cells, rt L180M/M204V; type: cell-based, hepatitis B virus
Description: as §1, §2, §3

## CC(C)(C)C(=O)OCOP(=O)(COCCn1cnc2c(N)ncnc21)OCOC(=O)C(C)(C)C [ADV, adefovir dipivoxil]
HBV rt N236T/N238D; rt N236T/N238D mutation, readout not stated
  fold increase in IC50: twenty-three
HBV rt A181T/N236T/N238D; rtA181T also present (triple mutant), readout not stated
  fold increase in IC50: five
HBV [1]; Patient A, ADV commenced Day 0, 30 mg/day
  HBV DNA levels: reduced
HBV [1]; Patient A, day 904 post-ADV treatment
  HBV DNA copies/ml: 1.55 × 10^6 copies/ml
HBV [1]; Patient A, day 932
  HBV DNA copies/ml: 2.97 × 10^6 copies/ml
HBV [1]; Patient A, day 959
  HBV DNA copies/ml: 1.76 × 10^6 copies/ml
HBV [1]; Patient A, day 983 (end ADV)
  HBV DNA copies/ml: 1.64 × 10^6 copies/ml
HBV [1]; Patient C, day 701
  HBV DNA copies/ml: 1.5 × 10^7 copies/ml
HBV [1]; Patient C, day 730
  HBV DNA copies/ml: 3.7 × 10^6 copies/ml
[2]; Patient A, open label ADV, day 983 (end ADV)
  ALT: 65 IU/L
[2]; Patient C, ADV 10 mg/day clinical trial, day 29
  ALT: 160 IU/L
[2]; Patient C, ADV 10 mg/day clinical trial, day 630
  ALT: 407 IU/L
[2]; Patient C, open label ADV, day 701
  ALT: 226 IU/L
[2]; Patient C, open label ADV, day 730
  ALT: 361 IU/L
[2]; Patient C, open label ADV, day 738
  ALT (peak during open label ADV): 517 IU/L
[2]; Patient C, two year clinical trial period, ADV 10 mg/day
  average ALT: 114 IU/L
HBV [3]
  mean decrease in viremia: 4 log10

## Nc1ncnc2c1ncn2CCOCP(=O)(O)O [Adefovir, 9-[phosphonyl-methoxyethyl]-adenine]
[4]; Real-time PCR
  In vitro Susceptibility IC50 (fold change from wild-type), Real-time PCR: 1 fold
[4]
  In vitro Susceptibility IC50 (fold change from wild-type), Southern Blot: 1 fold
HBV rt N236T/N238D; Real-time PCR, rt N236T/N238D
  In vitro Susceptibility IC50 (fold change from wild-type), Real-time PCR: 23 fold
HBV rt A181T/N236T/N238D; Real-time PCR, rt A181T/N236T/N238D
  In vitro Susceptibility IC50 (fold change from wild-type), Real-time PCR: 5.1 fold
HBV rt A181T/N236T/N238D; rt A181T/N236T/N238D
  In vitro Susceptibility IC50 (fold change from wild-type), Southern Blot: 7.3 fold
HBV rt L180M/M204V
  In vitro Susceptibility IC50 (fold change from wild-type), Southern Blot: 0.9 fold

## Nc1ccn([C@@H]2CS[C@H](CO)O2)c(=O)n1 [Lamivudine, (-)-β-2'-deoxy-3'-thiacytidine]
[4]
  In vitro Susceptibility IC50 (fold change from wild-type), Southern Blot: 1 fold
HBV rt A181T/N236T/N238D; rt A181T/N236T/N238D
  In vitro Susceptibility IC50 (fold change from wild-type), Southern Blot: >100 fold
HBV rt L180M/M204V
  In vitro Susceptibility IC50 (fold change from wild-type), Southern Blot: >2500 fold
[2]; Patient B, day -8 (S6), pre-ADV on LMV
  ALT: 427 IU/L
